Literature values in PubChem BioAssay AID1259409 (Chemical Carcinogenesis Research Information System (CCRIS), 2018).
Where “and” joins values, the source holds several entries; their conditions need not be identical. Identical values can stand only once.

System: rodent chemically induced tumor inhibition, incidence and multiplicity
Experiment: CCRIS tumor inhibitor studies

C=Cc1ccc2ccc3cccc4ccc1c2c34
tumour outcome (control, treated, inhibition, significance) (Carcinogen: 7,12-DIMETHYLBENZ[A]ANTHRACENE, 57-97-6, Dose [Inhibitor]: 0, 44 NMOL IN 0.2 ML ACETONE APPLIED TO BACK ONCE 5 MIN PRIOR TO CARCINOGEN DOSE (STUDY DURATION: 26 WK), Route [Inhibitor]: DERMAL, Species: MOUSE, Strain/Sex: SENCAR/FEMALE, Target Tissue: Type of Lesion: SKIN: PAPILLOMA, Dose [Carcinogen]: 10 NMOL IN 0.2 ML ACETONE APPLIED TO BACK ONCE.): 100%, 100%, 0%, not significant
tumour outcome (control, treated, inhibition, significance) (Carcinogen: 7,12-DIMETHYLBENZ[A]ANTHRACENE, 57-97-6, Dose [Inhibitor]: 0, 440 NMOL IN 0.2 ML ACETONE APPLIED TO BACK ONCE 5 MIN PRIOR TO CARCINOGEN DOSE (STUDY DURATION: 26 WK), Route [Inhibitor]: DERMAL, Species: MOUSE, Strain/Sex: SENCAR/FEMALE, Target Tissue: Type of Lesion: SKIN: PAPILLOMA, Dose [Carcinogen]: 10 NMOL IN 0.2 ML ACETONE APPLIED TO BACK ONCE.): 100%, 92%, 8%, not calculated
tumour outcome (control, treated, inhibition, significance) (Carcinogen: 7,12-DIMETHYLBENZ[A]ANTHRACENE, 57-97-6, Dose [Inhibitor]: 0, 4400 NMOL IN 0.2 ML ACETONE APPLIED TO BACK ONCE 5 MIN PRIOR TO CARCINOGEN DOSE (STUDY DURATION: 20 WK), Route [Inhibitor]: DERMAL, Species: MOUSE, Strain/Sex: SENCAR/FEMALE, Target Tissue: Type of Lesion: SKIN: PAPILLOMA, Dose [Carcinogen]: 10 NMOL IN 0.2 ML ACETONE APPLIED TO BACK ONCE.): 100%, 68%, 32%, not calculated
tumour outcome (control, treated, inhibition, significance) (Carcinogen: 7,12-DIMETHYLBENZ[A]ANTHRACENE, 57-97-6, Dose [Inhibitor]: 0, 4400 NMOL IN 0.2 ML ACETONE APPLIED TO BACK ONCE 5 MIN PRIOR TO CARCINOGEN DOSE (STUDY DURATION: 26 WK), Route [Inhibitor]: DERMAL, Species: MOUSE, Strain/Sex: SENCAR/FEMALE, Target Tissue: Type of Lesion: SKIN: PAPILLOMA, Dose [Carcinogen]: 10 NMOL IN 0.2 ML ACETONE APPLIED TO BACK ONCE.): 100%, 79%, 21%, not calculated
tumour outcome (control, treated, inhibition, significance) (Carcinogen: 7,12-DIMETHYLBENZ[A]ANTHRACENE, 57-97-6, Dose [Inhibitor]: 0, 44000 NMOL IN 0.2 ML ACETONE APPLIED TO BACK ONCE 5 MIN PRIOR TO CARCINOGEN DOSE (STUDY DURATION: 20 WK), Route [Inhibitor]: DERMAL, Species: MOUSE, Strain/Sex: SENCAR/FEMALE, Target Tissue: Type of Lesion: SKIN: PAPILLOMA, Dose [Carcinogen]: 10 NMOL IN 0.2 ML ACETONE APPLIED TO BACK ONCE.): 100%, 24%, 76%, not calculated
tumour outcome (control, treated, inhibition, significance) (Carcinogen: BENZO[A]PYRENE, 50-32-8, Dose [Inhibitor]: 0, 2200 NMOL IN 0.2 ML ACETONE APPLIED TO BACK ONCE 5 MIN PRIOR TO CARCINOGEN DOSE (STUDY DURATION: 26 WK), Route [Inhibitor]: DERMAL, Species: MOUSE, Strain/Sex: SENCAR/FEMALE, Target Tissue: Type of Lesion: SKIN: PAPILLOMA, Dose [Carcinogen]: 200 NMOL IN 0.2 ML ACETONE APPLIED TO BACK ONCE.): 100%, 95%, 5%, not calculated
tumour outcome (control, treated, inhibition, significance) (Carcinogen: BENZO[A]PYRENE, 50-32-8, Dose [Inhibitor]: 0, 4400 NMOL IN 0.2 ML ACETONE APPLIED TO BACK ONCE 5 MIN PRIOR TO CARCINOGEN DOSE (STUDY DURATION: 20 WK), Route [Inhibitor]: DERMAL, Species: MOUSE, Strain/Sex: SENCAR/FEMALE, Target Tissue: Type of Lesion: SKIN: PAPILLOMA, Dose [Carcinogen]: 200 NMOL IN 0.2 ML ACETONE APPLIED TO BACK ONCE., Promoter: PHORBOLMYRISTATE ACETATE, 16561-29-8): 75%, 64%, 15%, not calculated
tumour outcome (control, treated, inhibition, significance) (Carcinogen: BENZO[A]PYRENE, 50-32-8, Dose [Inhibitor]: 0, 22000 NMOL IN 0.2 ML ACETONE APPLIED TO BACK ONCE 5 MIN PRIOR TO CARCINOGEN DOSE (STUDY DURATION: 26 WK), Route [Inhibitor]: DERMAL, Species: MOUSE, Strain/Sex: SENCAR/FEMALE, Target Tissue: Type of Lesion: SKIN: PAPILLOMA, Dose [Carcinogen]: 200 NMOL IN 0.2 ML ACETONE APPLIED TO BACK ONCE.): 100%, 59%, 41%, not calculated
tumour outcome (control, treated, inhibition, significance) (Carcinogen: BENZO[A]PYRENE, 50-32-8, Dose [Inhibitor]: 0, 44000 NMOL IN 0.2 ML ACETONE APPLIED TO BACK ONCE 5 MIN PRIOR TO CARCINOGEN DOSE (STUDY DURATION: 20 WK), Route [Inhibitor]: DERMAL, Species: MOUSE, Strain/Sex: SENCAR/FEMALE, Target Tissue: Type of Lesion: SKIN: PAPILLOMA, Dose [Carcinogen]: 200 NMOL IN 0.2 ML ACETONE APPLIED TO BACK ONCE): 75%, 59%, 21%, not calculated
tumour outcome (control, treated, inhibition, significance) (Carcinogen: BENZO[A]PYRENE, 50-32-8, Dose [Inhibitor]: 0, 44000 NMOL IN 0.2 ML ACETONE APPLIED TO BACK ONCE 5 MIN PRIOR TO CARCINOGEN DOSE (STUDY DURATION: 26 WK), Route [Inhibitor]: DERMAL, Species: MOUSE, Strain/Sex: SENCAR/FEMALE, Target Tissue: Type of Lesion: SKIN: PAPILLOMA, Dose [Carcinogen]: 200 NMOL IN 0.2 ML ACETONE APPLIED TO BACK ONCE.): 100%, 38%, 62%, not calculated
tumour outcome (control, treated, inhibition, significance) (Carcinogen: N-METHYL-N'-NITRO-N-NITROSOGUANIDINE, 70-25-7, Dose [Inhibitor]: 0, 22000 NMOL IN 0.2 ML ACETONE APPLIED TO BACK ONCE 5 MIN PRIOR TO CARCINOGEN DOSE (STUDY DURATION: 20 WK), Route [Inhibitor]: DERMAL, Species: MOUSE, Strain/Sex: SENCAR/FEMALE, Target Tissue: Type of Lesion: SKIN: PAPILLOMA, Dose [Carcinogen]: 2500 NMOL IN 0.2 ML ACETONE APPLIED TO BACK ONCE.): 78%, 79%, -1%, not calculated

CC1=CCC(C(C)(C)O)CC1O (configuration not stated)
tumour outcome (control, treated, inhibition, significance) (Carcinogen: 7,12-DIMETHYLBENZ[A]ANTHRACENE, 57-97-6, Dose [Inhibitor]: 0, 1% IN DIET FOR 3 WK BEGINNING 2 WK PRIOR TO CARCINOGEN DOSE (STUDY DURATION: 20 WK), Route [Inhibitor]: ORAL, Species: RAT, Strain/Sex: WISTAR/FEMALE, Target Tissue: Type of Lesion: MAMMARY GLAND: CARCINOMA, Dose [Carcinogen]: 50 MG/KG IN SESAME OIL ONCE, Promoter: NONE USED): 80%, 52%, 35%, not calculated and 98%, 84%, 14%, not significant

C/C=C/C1=CC2=C(CO1)C(=O)[C@]1(C)OC(=O)[C@H](C(=O)CCCCC)[C@H]1C2
tumour outcome (control, treated, inhibition, significance) (Carcinogen: PEROXYNITRITE [19059-14-4], Dose [Inhibitor]: 0.0025% FOR 2 WKS BEFORE PROMOTER (STUDY DURATION: 20 WK), Route [Inhibitor]: DRINKING WATER, Species: MOUSE, Strain/Sex: SENCAR/FEMALE (15,?)/(15,?), Target Tissue: Type of Lesion: SKIN: PAPILLOMA, Dose [Carcinogen]: 390 NM IN 0.1 ML 1 MM NAOH ONCE 1 WK AFTER INHIBITOR, Promoter: 12-O-TETRADECANOYLPHORBOL-13-ACETATE [16561-29-8]): 100%, 80%, 20%, not significant
tumour outcome (control, treated, inhibition, significance) (Carcinogen: UVB IRRADIATION, Dose [Inhibitor]: 0.0025% IN DRINKING WATER FOR 2 WKS BEGINNING WHILE MICE RECEIVED UVB (STUDY DURATION: 20 WK), Route [Inhibitor]: DRINKING WATER, Species: MOUSE, Strain/Sex: SENCAR/FEMALE (15,?)/(15,?), Target Tissue: Type of Lesion: SKIN: PAPILLOMA, Dose [Carcinogen]: 15 MIN EACH D FOR 3 D, Promoter: 12-O-TETRADECANOYLPHORBOL-13-ACETATE [16561-29-8]): 100%, 53%, 47%, not significant

CCCCCCCc1c(O)cc(CC=C(C)C)c(O)c1C=O
tumour outcome (control, treated, inhibition, significance) (Carcinogen: AZOXYMETHANE, 25843-45-2, Dose [Inhibitor]: 0, 0.02% IN DIET IN WK 1-3 OF STUDY FOLLOWED BY BASAL DIET FOR DURATION OF STUDY (STUDY DURATION: 1 YR), Route [Inhibitor]: ORAL, Species: RAT, Strain/Sex: F344/MALE, Target Tissue: Type of Lesion: LARGE INTESTINE: ADENOCARCINOMA, Dose [Carcinogen]: 15 MG/KG BW 1/WK IN WK 1 AND 2 OF STUDY, Promoter: NONE USED): 13/27 (48%), 6/30 (20%), 58%, not significant
tumour outcome (control, treated, inhibition, significance) (Carcinogen: AZOXYMETHANE, 25843-45-2, Dose [Inhibitor]: 0, 0.02% IN DIET IN WK 1-3 OF STUDY FOLLOWED BY BASAL DIET FOR DURATION OF STUDY (STUDY DURATION: 1 YR), Route [Inhibitor]: ORAL, Species: RAT, Strain/Sex: F344/MALE, Target Tissue: Type of Lesion: LARGE INTESTINE: ADENOMA, Dose [Carcinogen]: 15 MG/KG BW 1/WK IN WK 1 AND 2 OF STUDY, Promoter: NONE USED): 6/27 (22%), 4/30 (13%), 41%, not significant
tumour outcome (control, treated, inhibition, significance) (Carcinogen: AZOXYMETHANE, 25843-45-2, Dose [Inhibitor]: 0, 0.02% IN DIET IN WK 1-3 OF STUDY FOLLOWED BY BASAL DIET FOR DURATION OF STUDY (STUDY DURATION: 1 YR), Route [Inhibitor]: ORAL, Species: RAT, Strain/Sex: F344/MALE, Target Tissue: Type of Lesion: SMALL INTESTINE: ADENOCARCINOMA, Dose [Carcinogen]: 15 MG/KG BW 1/WK IN WK 1 AND 2 OF STUDY, Promoter: NONE USED): 6/27 (22%), 5/30 (17%), 23%, not significant
